Marks after values point to notes of the source that are not given here.
Key:
[1] = Emulsifying activity against hydrocarbon contaminants; type: physicochemical; settings: cyclohexane and kerosene
Method: Therefore, the emulsifying properties of microbial biosurfactants 1–3 were evaluated against light as well as heavy hydrocarbon contaminants such as cyclohexane and kerosene, respectively (see Fig. S7 ^†).

[2] = Cytotoxicity, resazurin assay, summary over cell lines; type: cell-based; settings: human, DLD-1 and WS1 cells (summary over the three lines); A549, DLD-1 and WS1; read-out: Cytotoxicity IC50 against human cell lines
Method: (§1) As the anticancer potential of microbial rhamnolipids has previously been reported,[16] we next sought to evaluate the in vitro cytotoxicity of our synthetic and natural glycolipids 1–6 against cancerous cell lines, i.e., human lung carcinoma (A549) and colorectal adenocarcinoma (DLD-1). The compounds were also tested against human normal skin fibroblasts (WS1) to estimate their selectivity towards cancer cells.
(§2) 4. Experimental Procedures for Biological Evaluation and Surfactant Properties. […]
(§3) Cell Culture. Human lung carcinoma (A549), human colorectal adenocarcinoma (DLD-1), and human normal skin fibroblasts (WS1) cell lines were obtained from the American Type Culture Collection (ATCC). All cell lines were cultured in minimum essential medium containing Earle’s […]
(§4) salts and L-glutamine (Mediatech Cellgro, VA), to which were added 10% foetal bovine serum (Hyclone), vitamins (1×), penicillin (100 IU•mL-1), streptomycin (100 µg•mL−1), essential amino acids (1×), and sodium pyruvate (1×) (Mediatech Cellgro, VA). Cells were kept at 37 °C in a humidified environment containing 5% CO2.
(§5) Cytotoxicity Assay. Exponentially growing A549, DLD-1 or WS1 cells were plated in 96-well microplates (Costar, Corning Inc.) at a density of 5 × 10^3 cells per well in 100 µL of culture medium and were allowed to adhere for 16 h prior treatment. Increasing concentrations of each compound in biotech DMSO (Sigma-Aldrich) were then added (100 µL per well) and the cells were incubated for 48 h. The final concentration of DMSO in the culture medium was maintained at 0.5% (v/v) to avoid solvent toxicity. Cytotoxicity was assessed using resazurin9 on an automated 96-well Fluoroskan Ascent F1TM plate reader (Labsystems) using excitation and emission wavelengths of 530 and 590 nm, respectively. Fluorescence was proportional to the cellular metabolic activity in each well. Survival percentage was defined as the fluorescence in experimental wells as compared to that in control wells after subtraction of blank values. Each experiment was carried out three times in triplicate. IC50 results were expressed as means ± standard deviation. […]

[3] = Surface tension and CMC, Fisher tensiometer, du Noüy ring method; type: physicochemical; parameters: γ CMC (surface tension at CMC): unit not given here; settings: pH 7.0; synthetic samples
Method: Biosurfactants are molecules that can associate with each other leading to the formation of micelles. They can also interact with surfaces between phases of different polarity such as the air/water or oil/water interface.[77] To gain quantitative insights into the surface-active properties of microbial glycolipids, the surface tensions at CMC (γCMC) of ananatoside A (1) and ananatoside B (2) were measured using a Fisher tensiometer by means of the du Noüy ring method. The CMC, referring to the concentration of surfactant at which micelles start to form, was determined from a plot of surface tension again each concentration. […] Consequently, the surface tension measurements were performed quickly to avoid the precipitation of ananatoside A (1) into the aqueous medium.

sheep blood erythrocytes = assay: Hemolytic activity; type: cell-based; settings: sheep blood erythrocytes; 1 h, 37 °C; max tested 200 μM
Method: Owing to their surfactant properties, glycolipids can break the membrane of red blood cells causing hemolytic activity.[18] To understand if the cytotoxicity of macrolactones 1, 4, 5β, and 6β was due to their surface tension activity, we evaluated the hemolytic potential of synthetic glycolipids 1–6 against sheep erythrocytes (Table 5). […] The non-cytotoxic rhamnolipid 3 was also found to exert a weak hemolytic activity (HC50 = 65 ± 6 μM). […]
Hemolytic Activity. The hemolytic activity of the synthetic surfactants was evaluated as previously described with small modifications.10 Defibrinated sheep blood (Oxoid) was centri fuged at 1000 × g for 5 min. The pellet containing erythrocytes was washed once and suspended in 1X PBS to obtain a 1% erythrocytes suspension. All samples were suspended in DMSO/PBS (5:1 v/v) and serially diluted in a 96 -well plate to obtain a range of co ncentrations from 1 mM to 7.8 µM.
The erythrocytes suspension (160 µL) was added to 40 µL of samples to obtain final concentrations […]
ranging between 200 µM and 1.56 µM. Triton X-100 was used as a positive hemolysis control.
The plate was then incubated at 37 °C with agitation at 150 rpm for 1 h and centrifuged at 1500 × g for 5 min. The supernatant was transferred in an empty plate and absorbance was measured at 540 nm using a Cytation3 microplate reader (Biotek). HC50 was calculated in comparison with the positive control. The experiment was performed in triplicate and repeated three times. […]

[4] = Cytotoxicity, resazurin assay; type: cell-based, human; settings: human, max tested 200 μM
Method: as §1, §2, §3, §4, §5

[5] = DLD-1 colorectal adenocarcinoma cells

| CMC (critical micelle concentration) [3] [µM] | γ CMC (surface tension at CMC) [3] | SMILES | Emulsifying activity [1] | IC50 at 48 h [2] [µM] | Hemolysis (HC50 in μM) Erythrocytes (sheep blood erythrocytes) | IC50 at 48 h ([4]; A549 lung carcinoma cells) [µM] | IC50 at 48 h [4, 5] [µM] | IC50 at 48 h ([4]; WS1 normal skin fibroblasts) [µM] |
| --- | --- | --- | --- | --- | --- | --- | --- | --- |
| 43 ± 2 | 37 ± 1 | CCCCCCC[C@@H]1CC(=O)OC[C@H]2O[C@@H](O[C@H](CCCCCCC)CC(=O)O1)[C@H](O)[C@@H](O)[C@@H]2O [Compound 1, ananatoside A] | unable to form any emulsion | 50 to 58 | 12.3 ± 0.3 µM | 50 ± 7 | 58 ± 2 | 52 ± 4 |
| 63 ± 2 | 28 ± 1 | CCCCCCC[C@H](CC(=O)O)OC(=O)C[C@@H](CCCCCCC)O[C@@H]1O[C@H](CO)[C@@H](O)[C@H](O)[C@H]1O [Compound 2, ananatoside B] | equally able to generate emulsions with cyclohexane and kerosene | > 200 | >200 ^d μM | > 200 | > 200 | > 200 |

— article PMC8171317, “Total synthesis, isolation, surfactant properties, and biological evaluation of ananatosides and related macrodilactone-containing rhamnolipids” (Chemical Science, 2021)
